Here are results for six molecules from patent publication US5034419A, “N-cycloalkylalkylamines, process for their preparation, their use as medicament and their synthesis intermediates” (L'Oreal, priority 1988, dated 1991).

In one series the target is T1, kappa receptors (Cavia porcellus, UniProt P41144).
T1 construct: from tissue
Nature of the series: in vitro affinity for kappa receptors. In kind it is binding. As to the method: (§1) The "in vitro" study of the affinity of the compounds according to the invention for the three opium receptors is carried out in accordance with the technique described by F. Roman and coll. in J. Pharm. Pharmacol. 1987, 39, p. 404-407 and the study of the affinity for PCP receptors is carried out in accordance with the technique described by Vignon J. and coll. in "Brain Res." 1983; 280, p. 194-7 and 1986; 378, p. 133-41.
(§2) The results shown in table 3 are, for each receptor studied, expressed in IC50, which are the nanomolar concentrations of the dissolved products which are capable of inhibiting 50% of the bonds between the specific radioactive ligand to the receptor under consideration.

The target in the next series is T2, delta receptors (Cavia porcellus, UniProt A0A286XTF2).
T2 construct: from tissue
T2 sequence (A0A286XTF2 1-366): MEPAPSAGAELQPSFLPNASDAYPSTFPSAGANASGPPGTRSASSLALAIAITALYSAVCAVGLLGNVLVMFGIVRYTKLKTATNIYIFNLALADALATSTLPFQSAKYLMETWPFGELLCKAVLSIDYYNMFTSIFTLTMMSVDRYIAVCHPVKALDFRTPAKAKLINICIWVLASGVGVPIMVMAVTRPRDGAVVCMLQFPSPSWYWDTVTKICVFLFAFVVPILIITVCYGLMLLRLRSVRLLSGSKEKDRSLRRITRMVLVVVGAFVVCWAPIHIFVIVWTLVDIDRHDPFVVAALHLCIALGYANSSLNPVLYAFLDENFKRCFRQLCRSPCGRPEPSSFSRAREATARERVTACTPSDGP
Kind of series: in vitro affinity for delta receptors. In kind it is binding. To be noted: Table 3; read-out: delta rec. IC50. As to the method:
as §1, §2

A further series has as its system animals. The settings on record: in vivo; cited from earlier work.
The next series deals with T3, sigma receptors (Cavia porcellus, UniProt Q60492).
T3 construct: sigma receptors of the cerebral membranes of the guinea-pig used in this study; from tissue; host or cells: guinea-pig cerebral membranes
T3 sequence (Q60492 whole entry): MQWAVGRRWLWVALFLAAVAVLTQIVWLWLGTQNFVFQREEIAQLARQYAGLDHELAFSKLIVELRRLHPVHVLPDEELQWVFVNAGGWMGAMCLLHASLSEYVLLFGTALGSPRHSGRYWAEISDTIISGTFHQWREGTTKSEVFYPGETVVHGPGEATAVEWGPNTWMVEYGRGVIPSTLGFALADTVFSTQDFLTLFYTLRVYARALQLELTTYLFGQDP
Nature of the series: in vitro affinity for sigma receptors, competition with (+)[3H]SKF10,047. In kind it is binding, guinea-pig (cerebral membranes). As to the method: The test is carried out by incubating solutions of suitable concentrations of the products with standard samples of membranes and determining, after filtration, the residual radioactivity of the solution.

A short description of series [1]: inhibition of gastro-duodenal ulcers caused by cysteamine. In kind it is in vivo, Wistar female rats. The settings on record: Rattus norvegicus; cysteamine hydrochloride 400 mg/kg s.c.; products orally or subcutaneously; read-out: ED50 - ulceration scores. The protocol:
This activity is set in relation to the capacity of the products to cause an increase in the alkaline secretion in the duodenum in anaesthetized animals.
In this test, groups of 6 Wistar female rats with an average weight of 200 g receive a subcutaneous injection of cysteamine hydrochloride in an amount of 400 mg/kg. The products under investigation are administered orally or subcutaneously 1 h or, respectively, 30 minutes before the ulcerogenic agent.
Ten hours thereafter, the rats are sacrificed by elongation and their stomach and duodenum are removed, rinsed with physiological solution and mounted on a card. The presence of ulcers in the antro-pyloric-duodenal zone is examined and their area, expressed in mm^2, is evaluated by multiplying the two main perpendicular axis of the lesion. Statistical analysis of the results is performed with the aid of the Student test for the ulcerated areas in comparison with a control group receiving only excipient.
The results presented in table 5 are expressed in ED50 of ulceration scores, which are the effective doses, expressed in mg/kg product, which cause inhibition of 50% of the ulcerations caused by cysteamine.

Series [2] can be described thus: antagonism of amnesia caused by scopolamine, passive avoidance test. In kind it is in vivo, mice. The settings on record: for % antagonism of the amnesia: 0.25 mg/kg orally, scopolamine 1 mg/kg i.p. 30 minutes later, latency after 24 hours; for antagonism of amnesia caused by scopolamine (in words): mouse, in vivo. As to the method:
The animal is introduced into the illuminated compartment, and when it moves to the dark compartment it receives an electric current (0.35 mA) through the base until it returns to the illuminated compartment, from where it is then removed.
After 24 hours, the operation is repeated. The mouse is replaced in the apparatus and it avoids entering into the dark compartment. The time which elapses before passage into this compartment is recorded; under the conditions of the experiment, the efficacy of the compounds under investigation in antagonizing the amnesic effect of scopolamine, which is administered intraperitoneally in an amount of 1 mg/kg 30 minutes before the animal is first introduced into the apparatus, can be evaluated.
In control mice which have received only scopolamine, the time elapsed before passage after 24 hours is remarkably lower than that observed in the untreated animals.
The study of the products according to the invention by this method is performed on groups of 18 mice and the products are administered orally on the first day in an amount of 0.25 mg/kg 30 minutes before administration of scopolamine i.p.

In a further series the target is mu receptors. Nature of the series: in vitro affinity for mu receptors. The series is classed as binding. The settings on record: for IC50: Table 3, read-out: mu rec. IC50. The protocol: as §1, §2
A short description of series [3]: alkaline duodenal secretion in anaesthetized rats. In kind it is in vivo, male rats. To be noted: 1 mg/kg intravenously; for Increase AUC 1 2 h: AUC of alkaline flow rate 1 h to 2 h compared with control animals; for Increase in secretion: maximum increase, anaesthetized rats. The protocol:
The activity of the products on alkaline duodenal secretion in rats is studied in accordance with a technique described by FLEMSTROM and coll. Gastroenterology, 1983, 84, p. 787-794.
The test comprises determination every 10 minutes, for 3 hours and in situ, of the alkaline secretion of a duodenal segment 12 mm in length, with no Brunner glands and situated 2 cm from the pylorus.
The study is performed on male rats of about 350 g previously anaesthetized, in which the duodenal segment chosen in cannulated by 2 glass tubes in accordance with the technique described by the author, and in which a luminal perfusate consisting of 5 ml isotonic NaCl solution is maintained at 37° C.
The variations in the intraluminal alkaline secretion are measured by pHmetry every 10 minutes by means of an automated system maintaining a constant pH of 7.4 by in situ addition of a 0.04N solution of hydrochloric acid. Fifty minutes after the start of the experiment, the products under investigation are administered intravenously or intraarterially in an amount of 1 mg/kg and the volume of hydrochloric acid introduced, which is a reflection of the in situ increase in alkaline secretion, is measured every 10 minutes for 3 hours with respect to the start of the experiment, that is to say for 130 minutes after injection of the product under investigation.
The following are determined for each product:
a) The maximum increase in secretion in micro-eq/cm/h under the action of the drug, taking into account the basal secretion of the same animals observed for 50 minutes before administration of the product.
The results are shown in table 6, which follows, for the products (I) according to the invention administered intravenously in an amount of 1 mg/kg.

The target of another series is PCP receptors. Nature of the series: in vitro affinity for phencyclidine (PCP) receptors. In kind it is binding. To be noted: Table 3; read-out: PCP rec. IC50. The protocol:
as §1, §2

A short description of series [4]: protection from convulsions induced by picrotoxin in mice. The series is classed as in vivo, "Swiss" male mice. The settings on record: 50 mg/kg i.p., picrotoxin 24 mg/kg i.p. 30 minutes later, * p<0.05, ** p<0.01, *** p<0.001. As to the method: b) The psychotropic properties of the compounds were determined by the protection from convulsions induced by picrotoxin in mice, which was realized in accordance with a method derived from that of Krall and coll., "Epilepsia", 1978, 19, p. 409-428.
The administration of picrotoxin to animals causes a convulsive attack characterized by a myoclonic extension syndrome followed by extension of the limbs leading to death of the animals. Certain substances, in particular those which act on the GABA/benzodiazepine/Cl-ionophor complex, provide protection of the animals from these convulsive attacks.
In practice, the study is carried out on groups of 10 "Swiss" male mice weighing about 20 g, to which the product under investigation is administered in aqueous solution either intraperitoneally (i.p.) or orally (p.o.).
An intraperitoneal injection of a solution of picrotoxin in an amount of 24 mg/kg in a volume of 0.2 ml per animal is then performed, either 30 minutes after intraperitoneal administration of the product or 60 minutes after oral administration of the product, the dose of the product injected in this way causing a clonic attack which leads to death of the untreated animals. Under the conditions of the test, suppression of the tonic extension phase is found in the animals treated.
The results are expressed:
either as the percentage of animals protected from this phase under the action of 50 mg/kg compound under investigation administered i.p. or 100 mg/kg p.o.,
or in the ED50 for each of these groups, which is the effective dose of the compound under investigation expressed in mg/kg which protects 50% of animals from this extension phase, the significance value of the results generally being indicated in the following manner: […]

[5] abbreviates: Table 2, (+)[3H]SKF10,047, guinea-pig cerebral membranes, read-out: IC50 (bonding affinity to sigma receptors).
Setting [6] is: Table 3, read-out: kappa rec. IC50.
Setting [7] is: IC50 (bonding affinity to sigma receptors), Table 2, (+)[3H]SKF10,047, guinea-pig cerebral membranes.

Structures can show the parent of a compound that is named as a salt. Where two headings read alike, the source gives them in different places.

T1 sequence (P41144 whole entry): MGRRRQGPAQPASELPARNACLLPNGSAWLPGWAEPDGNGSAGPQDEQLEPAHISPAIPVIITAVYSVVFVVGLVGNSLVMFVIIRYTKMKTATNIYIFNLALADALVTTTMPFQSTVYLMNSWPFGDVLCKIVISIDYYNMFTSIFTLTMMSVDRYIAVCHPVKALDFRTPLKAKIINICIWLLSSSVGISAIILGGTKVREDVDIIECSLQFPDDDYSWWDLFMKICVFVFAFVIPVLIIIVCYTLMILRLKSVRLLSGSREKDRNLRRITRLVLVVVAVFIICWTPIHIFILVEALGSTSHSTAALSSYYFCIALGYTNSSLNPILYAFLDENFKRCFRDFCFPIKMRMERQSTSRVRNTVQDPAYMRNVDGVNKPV

In the case of `Cc1ccccc1NC(=N)Nc1ccccc1C` [DTG, ditolylguanidine, reference compound], the IC50 at kappa receptors (kappa rec. IC50, Table 3) came out at 6.49 µM; on delta receptors, 33.2 µM. Further, the “toxicity on animals (in words)” value in the series with animals is given as “excessive toxicity”.

Turning to `CCC(CC=Cc1ccccc1)(c1ccccc1)N(C)CC1CCC1` (stereo not drawn) [Example 12, α-Cinnamyl-N-cyclobutylmethyl-α-ethyl-N-methyl-benzylamine], the IC50 was determined as 0.05 µM at sigma receptors (setting [5]), 6.28 µM on kappa receptors (setting [6]), 85.6 µM on delta receptors and 7.18 µM at mu receptors. For the same molecule, the ED50 in series [1] is 12.2 mg/kg. The “% antagonism of the amnesia” value in [2] was 98%. Further, in series [2], the “antagonism of amnesia caused by scopolamine (in words)” value is recorded as “conclusive of an activity of the products according to the invention at a low dose”. For the same molecule, in series [3], the “Increase AUC 1 2 h” value worked out at 41.6. The same molecule gave an Increase in secretion in series [3] of 7.0 micro-eq/cm/h.

Consider `CCC(CC=Cc1ccccc1)(c1ccccc1)N(C)CC1CCCCC1` (stereo not drawn) [Example 7, α-Cinnamyl-N-cyclohexylmethyl-α-ethyl-N-methyl-benzylamine], for which the IC50 was 0.032 µM on sigma receptors (setting [5]); 72.8 µM at kappa receptors (setting [6]); 51.8 µM on delta receptors; over 100 µM at mu receptors; 50.8 µM at PCP receptors. Moreover, the ED50 in [1] is 10.5 mg/kg. Further, the “% antagonism of the amnesia” value in series [2] turned out to be 56%. Besides, the “mu rec. relative value of the IC50” value with mu receptors (relative to IC50 of sigma affinity = 1) is over 1000. For the same molecule, the “Increase AUC 1 2 h” value in series [3] came out at 52.8. In series [3], this molecule gave an Increase in secretion of 6.0 micro-eq/cm/h.

Turning to `CCC(CC=Cc1ccccc1)(c1ccccc1)N(C)CC1CC1` (single isomer, unassigned) [Example 10, (+)-α-Cinnamyl-N-cyclopropyl-methyl-α-ethyl-N-methyl-benzylamine hydrochloride], the IC50 on sigma receptors (setting [7]) worked out at 0.013 µM; at sigma receptors (sigma rec. IC50, Table 3), 0.013 µM; on kappa receptors (setting [6]), 23.8 µM; at delta receptors, 67.9 µM. Besides, the ED50 in [1] was determined as 5 mg/kg. Moreover, in series [2] (hydrochloride), the “% antagonism of the amnesia” value is reported as 76%. Also, the “i.p.: % prot. (inhibition of convulsions induced by picrotoxin)” value in series [4] (hydrochloride) was determined as 50%. Also, in [3], the “Increase AUC 1 2 h” value is on record as 66.2. In series [3], this molecule gave an Increase in secretion of 7.5 micro-eq/cm/h.

Turning to `CCC(CC=Cc1ccccc1)(c1ccccc1)N(C)CC1CC1` (stereo not drawn) [Example 9, α-Cinnamyl-N-cyclopropylmethyl-α-ethyl-N-methyl-benzylamine], the IC50 on sigma receptors (setting [7]) amounted to 0.024 µM; on sigma receptors (sigma rec. IC50, Table 3), 0.024 µM; on kappa receptors (setting [6]), 6.2 µM; on delta receptors, 83.8 µM; on mu receptors it was 15.8 µM; on PCP receptors it was 3.67 µM. In addition, in series [1], the ED50 was determined as 26.2 mg/kg. Moreover, the “% antagonism of the amnesia” value in series [2] is given as 76%. Besides, the “antagonism of amnesia caused by scopolamine (in words)” value in series [2] is on record as “conclusive of an activity of the products according to the invention at a low dose”. The “i.p.: % prot. (inhibition of convulsions induced by picrotoxin)” value in [4] came to 90%. In series [3], the “Increase AUC 1 2 h” value is reported as 97.6. This molecule showed an Increase in secretion in [3] of 10.0 micro-eq/cm/h.

Turning to `CCC(CC=Cc1ccccc1)(c1cccs1)N(C)CC1CC1` (stereo not drawn) [Example 21, α-Cinnamyl-N-cyclopropylmethyl-α-ethyl-N-methyl-2-thiophenemethylamine], the IC50 on sigma receptors (setting [5]) amounted to 0.095 µM; at kappa receptors (setting [6]), 1.2 µM; at delta receptors, 7.39 µM; at mu receptors, 1.54 µM; on PCP receptors it was 6.28 µM. Besides, in [1], the ED50 was 48.2 mg/kg. Moreover, the “i.p.: % prot. (inhibition of convulsions induced by picrotoxin)” value in [4] worked out at 50%.
